Tests used:
large (Lg) crabgrass = assay: Test C preemergence; assay type: in vivo, Digitaria sanguinalis; conditions: for Crabgrass, Large plant response rating: preemergence; for Plant response rating, Crabgrass, Large: Preemergence, 62 g ai/ha, scale 0 to 100, 0 no effect, 100 complete control
Procedure, shortened: (§1)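 Seeds were sown in loam–sand blend and sprayed preemergence, while plants at 1- to 4-leaf stage (2–18 cm) in peat-based medium received postemergence sprays; test chemicals were formulated in a non-phytotoxic solvent with surfactant. After 13–15 days in a greenhouse, injury was rated visually against controls, 0 (no effect) to 100 (complete control).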

morningglory = assay: Test C preemergence; assay type: in vivo, Ipomoea coccinea; conditions: for Morningglory plant response rating: preemergence; for Plant response rating, Morningglory: Preemergence, 62 g ai/ha, scale 0 to 100, 0 no effect, 100 complete control
Procedure, shortened: as §1

ragweed = assay: Test C preemergence; assay type: in vivo, Ambrosia elatior; conditions: for Ragweed plant response rating: preemergence; for Plant response rating, Ragweed: Preemergence, 62 g ai/ha, scale 0 to 100, 0 no effect, 100 complete control
Procedure, shortened: as §1

galium [1] = assay: Test C preemergence; assay type: in vivo, Galium aparine; conditions: for Galium plant response rating: preemergence; for Plant response rating, Galium: Preemergence, 62 g ai/ha, scale 0 to 100, 0 no effect, 100 complete control
Procedure, shortened: as §1

velvetleaf = assay: Test C preemergence; assay type: in vivo, Abutilon theophrasti; conditions: for Velvetleaf plant response rating: preemergence; for Plant response rating, Velvetleaf: Preemergence, 62 g ai/ha, scale 0 to 100, 0 no effect, 100 complete control
Procedure, shortened: as §1

lambsquarters = assay: Test C preemergence; assay type: in vivo, Chenopodium album; conditions: for Lambsquarters plant response rating: preemergence; for Plant response rating, Lambsquarters: Preemergence, 62 g ai/ha, scale 0 to 100, 0 no effect, 100 complete control
Procedure, shortened: as §1

oilseed rape = assay: Test C preemergence; assay type: in vivo, Brassica napus; conditions: for Oilseed Rape plant response rating: preemergence; for Plant response rating, Oilseed Rape: Preemergence, 62 g ai/ha, scale 0 to 100, 0 no effect, 100 complete control
Procedure, shortened: as §1

waterhemp = assay: Test C preemergence; assay type: in vivo, Amaranthus rudis; conditions: for Waterhemp plant response rating: preemergence; for Plant response rating, Waterhemp: Preemergence, 62 g ai/ha, scale 0 to 100, 0 no effect, 100 complete control
Procedure, shortened: as §1

pigweed = assay: Test C preemergence; assay type: in vivo, Amaranthus retroflexus; conditions: for Pigweed plant response rating: preemergence; for Plant response rating, Pigweed: Preemergence, 62 g ai/ha, scale 0 to 100, 0 no effect, 100 complete control
Procedure, shortened: as §1

soybean = assay: Test C preemergence; assay type: in vivo, Glycine max; conditions: for Soybean plant response rating: preemergence; for Plant response rating, Soybean: Preemergence, 62 g ai/ha, scale 0 to 100, 0 no effect, 100 complete control
Procedure, shortened: as §1

blackgrass [2] = assay: Test C preemergence; assay type: in vivo, Alopecurus myosuroides; conditions: for Blackgrass plant response rating: preemergence; for Plant response rating, Blackgrass: Preemergence, 62 g ai/ha, scale 0 to 100, 0 no effect, 100 complete control
Procedure, shortened: as §1

kochia [3] = assay: Test A preemergence; assay type: in vivo, Kochia scoparia; conditions: for Kochia plant response rating (0 to 100 scale): 125 g ai/ha
Procedure, shortened: (§2)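 Scoring: eye-based comparison with untreated controls, 0 for no effect through 100 for complete control, at about day 10. Treatments: directed soil spray preemergence; foliar spray postemergence on 2–10 cm plants at the one- to two-leaf stage. Medium: loam soil with sand.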

Italian ryegrass = assay: Test A postemergence; assay type: in vivo, Lolium multiflorum
Procedure, shortened: as §2

galium [4] = assay: Test A postemergence; assay type: in vivo, Galium aparine
Procedure, shortened: as §2

kochia [5] = assay: Test A postemergence; assay type: in vivo, Kochia scoparia
Procedure, shortened: as §2

giant foxtail = assay: Test C preemergence; assay type: in vivo, Setaria faberii; conditions: for Foxtail, Giant plant response rating: preemergence; for Plant response rating, Foxtail, Giant: Preemergence, 62 g ai/ha, scale 0 to 100, 0 no effect, 100 complete control
Procedure, shortened: as §1

barnyardgrass = assay: Test C preemergence; assay type: in vivo, Echinochloa crus-galli; conditions: for Barnyardgrass plant response rating: preemergence; for Plant response rating, Barnyardgrass: Preemergence, 62 g ai/ha, scale 0 to 100, 0 no effect, 100 complete control
Procedure, shortened: as §1

blackgrass [6] = assay: Test A postemergence; assay type: in vivo, Alopecurus myosuroides
Procedure, shortened: as §2

[7] = 16 g ai/ha, scale 0 to 100 (0 no effect, 100 complete control)
[8] = 125 g ai/ha, scale 0 (no effect) to 100 (complete control)
[9] = 31 g ai/ha, 0 to 100 scale, 0 no effect, 100 complete control
[10] = 125 g ai/ha, 0 to 100 scale, 0 no effect, 100 complete control
[11] = 500 g ai/ha, 0 to 100 scale where 0 is no effect and 100 is complete control

FC(F)Oc1cnn(-c2c(Cl)cccc2Oc2ncc(Cl)cn2)c1 [Compound 258]
Crabgrass, Large plant response rating (large (Lg) crabgrass; [7]): 100 | Crabgrass, Large plant response rating (large (Lg) crabgrass; [8]): 100 | Plant response rating, Crabgrass, Large (large (Lg) crabgrass): 100 | Morningglory plant response rating (morningglory; [7]): 10 | Morningglory plant response rating (morningglory; [8]): 98 | Plant response rating, Morningglory (morningglory): 45 | Ragweed plant response rating (ragweed; [7]): 0 | Ragweed plant response rating (ragweed; [8]): 90 | Plant response rating, Ragweed (ragweed): 80 | Galium plant response rating (galium [1]; [7]): 80 | Galium plant response rating (galium [1]; [8]): 100 | Plant response rating, Galium (galium [1]): 100 | Velvetleaf plant response rating (velvetleaf; [7]): 80 | Velvetleaf plant response rating (velvetleaf; [8]): 100 | Plant response rating, Velvetleaf (velvetleaf): 100 | Lambsquarters plant response rating (lambsquarters; [7]): 65 | Lambsquarters plant response rating (lambsquarters; [8]): 98 | Plant response rating, Lambsquarters (lambsquarters): 98 | Oilseed Rape plant response rating (oilseed rape; [7]): 80 | Oilseed Rape plant response rating (oilseed rape; [8]): 100 | Plant response rating, Oilseed Rape (oilseed rape): 100 | Waterhemp plant response rating (waterhemp; [7]): 100 | Waterhemp plant response rating (waterhemp; [8]): 100 | Plant response rating, Waterhemp (waterhemp): 98 | Pigweed plant response rating (pigweed; [7]): 100 | Pigweed plant response rating (pigweed; [8]): 100 | Plant response rating, Pigweed (pigweed): 100 | Soybean plant response rating (soybean; [7]): 35 | Soybean plant response rating (soybean; [8]): 95 | Plant response rating, Soybean (soybean): 75 | Blackgrass plant response rating (blackgrass [2]; [7]): 0 | Blackgrass plant response rating (blackgrass [2]; [8]): 90 | Plant response rating, Blackgrass (blackgrass [2]): 90 | Plant response rating, Kochia (kochia [3]; 31 g ai/ha, 0 to 100 scale where 0 is no effect and 100 is complete control, visual, approximately 10 days): 90 | Kochia plant response rating (0 to 100 scale) (kochia [3]): 90 | Plant response rating, Ryegrass, Italian (Italian ryegrass; [9]): 0 | Plant response rating, Ryegrass, Italian (Italian ryegrass; [10]): 20 | Plant response rating, Galium (galium [4]; [9]): 70 | Plant response rating, Galium (galium [4]; [10]): 90 | Plant response rating, Kochia (kochia [5]; [9]): 90 | Plant response rating, Kochia (kochia [5]; [10]): 100 | Foxtail, Giant plant response rating (giant foxtail; [7]): 75 | Foxtail, Giant plant response rating (giant foxtail; [8]): 100 | Plant response rating, Foxtail, Giant (giant foxtail): 100 | Barnyardgrass plant response rating (barnyardgrass; [7]): 45 | Barnyardgrass plant response rating (barnyardgrass; [8]): 100 | Plant response rating, Barnyardgrass (barnyardgrass): 90 | Plant response rating, Blackgrass (blackgrass [6]; [9]): 20 | Plant response rating, Blackgrass (blackgrass [6]; [10]): 50

N#Cc1cn(-c2c(C#N)cccc2Oc2ncc(Cl)cn2)nn1 [Compound 273]
Crabgrass, Large plant response rating (large (Lg) crabgrass; [7]): 90 | Crabgrass, Large plant response rating (large (Lg) crabgrass; [8]): 100 | Plant response rating, Crabgrass, Large (large (Lg) crabgrass): 95 | Morningglory plant response rating (morningglory; [7]): 5 | Morningglory plant response rating (morningglory; [8]): 85 | Plant response rating, Morningglory (morningglory): 55 | Ragweed plant response rating (ragweed; [7]): 10 | Ragweed plant response rating (ragweed; [8]): 85 | Plant response rating, Ragweed (ragweed): 55 | Galium plant response rating (galium [1]; [7]): 0 | Galium plant response rating (galium [1]; [8]): 98 | Plant response rating, Galium (galium [1]): 95 | Velvetleaf plant response rating (velvetleaf; [7]): 10 | Velvetleaf plant response rating (velvetleaf; [8]): 85 | Plant response rating, Velvetleaf (velvetleaf): 85 | Lambsquarters plant response rating (lambsquarters; [7]): 35 | Lambsquarters plant response rating (lambsquarters; [8]): 100 | Plant response rating, Lambsquarters (lambsquarters): 100 | Oilseed Rape plant response rating (oilseed rape; [7]): 0 | Oilseed Rape plant response rating (oilseed rape; [8]): 100 | Plant response rating, Oilseed Rape (oilseed rape): 80 | Waterhemp plant response rating (waterhemp; [7]): 45 | Waterhemp plant response rating (waterhemp; [8]): 100 | Plant response rating, Waterhemp (waterhemp): 98 | Pigweed plant response rating (pigweed; [7]): 55 | Pigweed plant response rating (pigweed; [8]): 100 | Plant response rating, Pigweed (pigweed): 100 | Soybean plant response rating (soybean; [7]): 5 | Soybean plant response rating (soybean; [8]): 65 | Plant response rating, Soybean (soybean): 40 | Blackgrass plant response rating (blackgrass [2]; [7]): 0 | Blackgrass plant response rating (blackgrass [2]; [8]): 70 | Plant response rating, Blackgrass (blackgrass [2]): 5 | Kochia plant response rating (0 to 100 scale) (kochia [3]): 100 | Kochia plant response rating (kochia [3]; [11]): 100 | Plant response rating, Ryegrass, Italian (Italian ryegrass; [10]): 50 | Plant response rating, Ryegrass, Italian (Italian ryegrass; [11]): 80 | Plant response rating, Galium (galium [4]; [10]): 80 | Plant response rating, Galium (galium [4]; [11]): 100 | Plant response rating, Kochia (kochia [5]; [10]): 70 | Plant response rating, Kochia (kochia [5]; [11]): 100 | Foxtail, Giant plant response rating (giant foxtail; [7]): 0 | Foxtail, Giant plant response rating (giant foxtail; [8]): 90 | Plant response rating, Foxtail, Giant (giant foxtail): 75 | Barnyardgrass plant response rating (barnyardgrass; [7]): 0 | Barnyardgrass plant response rating (barnyardgrass; [8]): 85 | Plant response rating, Barnyardgrass (barnyardgrass): 25 | Plant response rating, Blackgrass (blackgrass [6]; [10]): 60 | Plant response rating, Blackgrass (blackgrass [6]; [11]): 80
